{
  "source": "patent US9414596B2",
  "about": "“Metalloenzyme inhibitor compounds” (Viamet Pharmaceuticals, Inc., priority 2012, dated 2016)",
  "data": [
    {"system": "C. albicans", "assay": "Minimum Inhibitory Concentration (MIC) (C. albicans), CLSI M27-A2", "assay_type": "cell-based", "conditions": "Candida albicans, 48 h, C. albicans; approximately 48 h at 35±1° C.; MIC = about 50% growth reduction, visual; read-out: Candida MIC Rating", "protocol": "(§1) A. Minimum Inhibitory Concentration (MIC) (C. albicans) Compounds of the present disclosure were assessed for their ability to inhibit the growth of common strains of fungus, C. albicans using a standardized procedure (CLSI M27-A2). Stock solutions of the test compounds and standards were prepared in DMSO at 1,600 μg/mL (C. albicans). Eleven, serial, one-half dilutions of compounds were prepared in 96-well plates in RPMI+MOPS. The assay concentration ranges were 8-0.001 μg/mL (C. albicans). Cell suspensions of C. albicans were prepared and added to each well at concentrations of approximately 3.7×10^3 colony-forming-units per milliliter (cfu/mL). All testing was in duplicate. The inoculated plates were incubated for approximately 48 h at 35±1° C. At the completion of incubation the wells of each plate were evaluated visually for the presence of fungal growth. […] For QC purposes C. krusei isolate ATCC 6258 (4.0×10^3 cfu/mL) was included in the VOR assay.", "units": {"MIC": "µg/mL"}, "values": [
      {"smiles": "O=P(O)(O)OC(Cn1cnnn1)(c1ccc(F)cc1F)C(F)(F)c1ccc(-c2ccc(OCC(F)(F)F)cc2)cn1", "note": "(centres unmarked) [Example 58, 2-(2,4-difluorophenyl)-1,1-difluoro-3-(1H-tetrazol-1-yl)-1-(5-(4-(2,2,2-trifluoroethoxy)phenyl)pyridin-2-yl)propan-2-yl dihydrogen phosphate]", "MIC": "< 0.5"},
      {"smiles": "CC(F)(c1ccc(-c2ccc(F)cc2)cn1)[C@](O)(Cn1cnnn1)c1ccc(F)cc1F", "note": "(stereo in doubt) [Example 50, 2-(2,4-Difluorophenyl)-3-fluoro-3-(5-(4-fluorophenyl)pyridin-2-yl)-1-(1H-tetrazol-1-yl)butan-2-ol]", "MIC": "1.5 to 4"}
    ]},
    {"system": "C. albicans", "assay": "Minimum Inhibitory Concentration (MIC) (C. albicans), CLSI M27-A2", "assay_type": "cell-based", "conditions": "Candida albicans, 48 h; read-out: Candida MIC Rating", "protocol": "as §1", "units": {"MIC": "µg/mL"}, "values": [
      {"smiles": "OC(Cc1cc[nH]n1)(c1ccc(F)cc1F)C(F)(F)c1ccc(-c2ccc(OC(F)(F)F)cc2)cn1", "note": "(centres unmarked) [Example 15, 2-(2,4-Difluorophenyl)-1,1-difluoro-3-(1H-pyrazol-3-yl)-1-(5-(4-(trifluoromethoxy)phenyl)-pyridin-2-yl)propan-2-ol]", "MIC": "< 0.5"},
      {"smiles": "OC(Cn1cnnn1)(c1ccc(F)cc1F)C(F)(F)c1ccc(-c2ccc(OCC(F)(F)C(F)(F)F)cc2)cn1", "note": "(centres unmarked) [Example 12, 2-(2,4-Difluorophenyl)-1,1-difluoro-1-(5-(4-(2,2,3,3,3-pentafluoropropoxy)phenyl)pyridin-2-yl)-3-(1H-tetrazol-1-yl)propan-2-ol]", "MIC": "< 0.5"}
    ]},
    {"system": "Septoria tritici (ATCC 26517)", "assay": "Minimum Inhibitory Concentration (MIC) (Septoria tritici), CLSI-based microdilution", "assay_type": "cell-based", "conditions": "Zymoseptoria tritici, ATCC26517, 168 h, S. tritici ATCC 26517; seven days at 22° C. in the dark; MIC = 50% reduction in growth, visual; read-out: Septoria MIC Rating", "protocol": "B. Minimum Inhibitory Concentration (MIC) (Septoria tritici)\nCompounds of the present disclosure were assessed for their ability to inhibit the growth of a common strain of the fungal plant pathogen Septoria tritici (ATCC 26517) using a procedure based on a Clinical and Laboratory Standards Institute (CLSI) microdilution assay protocol for filamentous fungi.\nStock solutions of the test compounds and standards were prepared in DMSO at 6400 μg/mL. Each stock solution was used to prepare a 2-fold dilution series ranging from 16 to 0.016 μg/mL (total of 11 compound concentrations) in RPMI-1640 (Roswell Park Memorial Institute) medium containing 3-(N-morpholino)propanesulfonic acid (MOPS) buffer and 2% DMSO. A 100 μL aliquot of the dilutions was added to columns 1 (16 μg/mL compound) through 11 (0.016 μg/mL compound) of a 96-well microtiter plate. This format was replicated in a second row of the microtiter plate. Thus, each microtiter plate could include 11 concentrations of four test or control compounds replicated twice. A 100 μL aliquot of RPMI-1640/MOPS/2% DMSO medium was added to column 12 (no compound control) of the microtiter plate.\nA fresh culture of S. tritici was used to prepare a solution of approximately 5×10^4 colony-forming units per milliliter (cfu/mL) in RPMI/MOPS medium without DMSO. A 100 μL aliquot of this solution was added to all 96 wells in the microtiter plate. […] The assay plates were incubated at 22° C. for seven days in the dark without shaking.", "units": {"MIC": "µg/mL"}, "values": [
      {"smiles": "OC(Cn1cnnn1)(c1ccc(F)cc1F)C(F)(F)c1ccc(-c2cccc(C(F)(F)F)c2)cn1", "note": "(centres unmarked) [Example 31, 2-(2,4-Difluorophenyl)-1,1-difluoro-3-(1H-tetrazol-1-yl)-1-(5-(3-(trifluoromethyl)phenyl)pyridin-2-yl)propan-2-ol]", "MIC": "0.5 to 1.5"},
      {"smiles": "Oc1cccc(-c2ccc(C(F)(F)C(O)(Cn3cnnn3)c3ccc(F)cc3F)nc2)c1", "note": "(centres unmarked) [Example 30, 3-(6-(2-(2,4-Difluorophenyl)-1,1-difluoro-2-hydroxy-3-(1H-tetrazol-1-yl)propyl)pyridin-3-yl)phenol]", "MIC": "< 0.5"},
      {"smiles": "OC(Cn1cnnn1)(c1ccc(F)cc1F)C(F)(F)c1ccc(-c2ccc(F)c(F)c2)cn1", "note": "(centres unmarked) [Example 25, 2-(2,4-Difluorophenyl)-1-(5-(3,4-difluorophenyl)pyridin-2-yl)-1,1-difluoro-3-(1H-tetrazol-1-yl)propan-2-ol]", "MIC": "< 0.5"},
      {"smiles": "OC(Cn1ncnn1)(c1ccc(F)cc1F)C(F)(F)c1ccc(-c2ccc(C(F)(F)F)cc2)cn1", "note": "(centres unmarked) [Example 22]", "MIC": "> 4"},
      {"smiles": "O=[N+]([O-])c1ccc(-c2ccc(C(F)(F)C(O)(Cn3cnnn3)c3ccc(F)cc3F)nc2)cc1", "note": "(centres unmarked) [Example 32, 2-(2,4-Difluorophenyl)-1,1-difluoro-1-(5-(4-nitrophenyl)pyridin-2-yl)-3-(1H-tetrazol-1-yl)propan-2-ol]", "MIC": "0.5 to 1.5"},
      {"smiles": "O=C(c1ccc(-c2ccc(C(F)(F)C(O)(Cn3cnnn3)c3ccc(F)cc3F)nc2)cc1)C(F)(F)F", "note": "(centres unmarked) [Example 33, 1-(4-(6-(2-(2,4-Difluorophenyl)-1,1-difluoro-2-hydroxy-3-(1H-tetrazol-1-yl)propyl)pyridin-3-yl)phenyl)-2,2,2-trifluoroethanone]", "MIC": "0.5 to 1.5"},
      {"smiles": "OC(Cn1cnnn1)(c1ccc(F)cc1F)C(F)(F)c1ccc(-c2ccc(OCCC(F)(F)F)cc2)cn1", "note": "(centres unmarked) [Example 44, 2-(2,4-Difluorophenyl)-1,1-difluoro-3-(1H-tetrazol-1-yl)-1-(5-(4-(3,3,3-trifluoropropoxy)phenyl)pyridin-2-yl)propan-2-ol]", "MIC": "0.5 to 1.5"},
      {"smiles": "OC(Cn1cnnn1)(c1ccc(F)cc1F)C(F)(F)c1ccc(-c2cccc(OC(F)F)c2)cn1", "note": "(centres unmarked) [Example 26, 1-(5-(3-(Difluoromethoxy)phenyl)pyridin-2-yl)-2-(2,4-difluorophenyl)-1,1-difluoro-3-(1H-tetrazol-1-yl)propan-2-ol]", "MIC": "0.5 to 1.5"},
      {"smiles": "CC(C)(C)Oc1ccc(-c2ccc(C(F)(F)C(O)(Cn3cnnn3)c3ccc(F)cc3F)nc2)cc1", "note": "(centres unmarked) [Example 28, 1-(5-(4-(tert-Butoxy)phenyl)pyridin-2-yl)-2-(2,4-difluorophenyl)-1,1-difluoro-3-(1H-tetrazol-1-yl)propan-2-ol]", "MIC": "< 0.5"},
      {"smiles": "N#Cc1cccc(-c2ccc(C(F)(F)C(O)(Cn3cnnn3)c3ccc(F)cc3F)nc2)c1", "note": "(centres unmarked) [Example 3, 3-(6-(2-(2,4-Difluorophenyl)-1,1-difluoro-2-hydroxy-3-(1H-tetrazol-1-yl)propyl)pyridin-3-yl)benzonitrile]", "MIC": "1.5 to 4"}
    ]}
  ]
}
